Data taken from patent US20220184071A1, “GEPOTIDACIN FOR USE IN THE TREATMENT OF BACTERIAL URINARY TRACT INFECTIONS” (GlaxoSmithKline Intellectual Property Development Limited, priority 2019, published 2022).
In brackets after ≈: the same amount, converted by molar mass.

Columns and labels:
Format in all cases: cell-based
[1] = system: Proteus hauseri and Proteus peneri; test: MIC by CLSI agar dilution, Example 1 Method 2; conditions: at least one strain of every organism listed
Experimental: Antimicrobial activity was determined in a second study by […] using the CLSI recommended procedure in serial two-fold dilutions and the minimum inhibitory concentration (MIC) was determined as the lowest concentration of the compound that inhibited visible growth. Amikacin, ceftazidime, colistin, fosfomycin, levofloxacin, meropenem, nitrofurantoin and trimethoprim-sulfamethoxazole were included as comparators. MICs for and comparators were determined by agar dilution according CLSI methods. In addition, gepotidacin and all of the aforementioned comparators identified in this method were evaluated against gram-negative aerobic organisms selected from Proteus hauseri and Proteus […]. Gepotidacin was tested in at least one exemplified salt.

[2] = system: Staphylococcus saprophyticus; test: MIC by CLSI broth microdilution, Example 1 Method 1
Experimental: Unless otherwise stated, the Clinical and Laboratory Standards Institute (CLSI) recommended procedure is as set out in the edition of CLSI Approved Standard […]. Methods for Dilution Antimicrobial Susceptibility Tests for Bacteria That Grow Aerobically” at the time of testing. Antimicrobial activity was determined by broth microdilution using the CLSI recommended procedure. Gepotidacin was tested in serial two-fold dilutions and the minimum inhibitory concentration (MIC) was determined as the lowest concentration of the compound that inhibited visible growth. Gepotidacin was tested against 28 strains of Staphylococcus saprophyticus collected from multiple hospitals. Amoxicillin, azithromycin, levofloxacin and cefuroxime were included as comparators. MICs for gepotidacin and comparators were determined by broth microdilution according to CLSI methods.

[3] = system: Bacteroides uniformis; test: MIC by agar dilution, drug-resistant isolates
Experimental: (§1) Antimicrobial activity was determined by agar dilution using the Clinical and Laboratory Standards Institute (CLSI) recommended procedure.
(§2) The compounds were tested in serial two-fold dilutions and the minimum inhibitory concentration (MIC) was determined as the lowest concentration of the compound that inhibited visible growth. Gepotidacin was tested against 333 gram-negative anaerobic and 203 gram-positive anaerobic isolates collected from clinical samples in North America and Europe from 2000 to 2017; the majority collected from 2013 to 2016.
(§3) Additional analysis was performed from the results of the study described in Method 1 above, to determine the in vitro activity of gepotidacin against gram-negative and gram-positive anaerobic organisms with resistance to ceftriaxone, clindamycin, imipenem, metronidazole, moxifloxacin and piperacillin/tazobactam.

[4] = system: Bifidobacterium breve; test: MIC by agar dilution, drug-resistant isolates; conditions: moxifloxacin R; 1 isolate
Experimental: as §1, §2, §3

[5] = system: Bacteroides thetaiotaomicron; test: MIC by agar dilution, drug-resistant isolates
Experimental: as §1, §2, §3

[6] = system: Eubacterium limosum; test: MIC by agar dilution, drug-resistant isolates; conditions: moxifloxacin R; 2 isolates
Experimental: as §1, §2, §3

[7] = system: Veillonella parvula; test: MIC by agar dilution, drug-resistant isolates
Experimental: as §1, §2, §3

[8] = system: Veillonella, non-speciated; test: MIC by agar dilution, drug-resistant isolates
Experimental: as §1, §2, §3

[9] = system: Bacteroides vulgatus; test: MIC by agar dilution, drug-resistant isolates
Experimental: as §1, §2, §3

[10] = system: Bifidobacterium adolescentis; test: MIC by agar dilution, drug-resistant isolates; conditions: moxifloxacin R; 1 isolate
Experimental: as §1, §2, §3

[11] = system: Bacteroides caccae; test: MIC by agar dilution, drug-resistant isolates
Experimental: as §1, §2, §3

[12] = system: Lactobacillus rhamnosus; test: MIC by agar dilution, drug-resistant isolates; conditions: imipenem R; 18 isolates
Experimental: as §1, §2, §3

[13] = system: Lactobacillus, non-speciated; test: MIC by agar dilution, drug-resistant isolates
Experimental: as §1, §2, §3

[14] = system: Prevotella melaninogenica; test: MIC by agar dilution, drug-resistant isolates; conditions: 1 isolate
Experimental: as §1, §2, §3

[15] = system: Eubacterium, non-speciated; test: MIC by agar dilution, drug-resistant isolates; conditions: 1 isolate
Experimental: as §1, §2, §3

[16] = system: Bacteroides stercoris; test: MIC by agar dilution, drug-resistant isolates; conditions: ceftriaxone R, 2 isolates
Experimental: as §1, §2, §3

[17] = system: Porphyromonas levii; test: MIC by agar dilution, drug-resistant isolates; conditions: metronidazole R; 1 isolate
Experimental: as §1, §2, §3

[18] = system: Bifidobacterium pseudocatenulatum; test: MIC by agar dilution, drug-resistant isolates; conditions: clindamycin R; 1 isolate
Experimental: as §1, §2, §3

[19] = system: Porphyromonas, non-speciated; test: MIC by agar dilution, drug-resistant isolates; conditions: 1 isolate
Experimental: as §1, §2, §3

[20] = system: Bacteroides ovatus; test: MIC by agar dilution, drug-resistant isolates
Experimental: as §1, §2, §3

O=c1ccc2ncc(=O)n3c2n1C[C@H]3CN1CCC(NCc2cc3c(cn2)OCCC3)CC1 [gepotidacin, (2R)-2-({4-[(3,4-dihydro-2H-pyrano[2,3-c]pyridin-6-ylmethyl)amino]-1-piperidinyl}methyl)-1,2-dihydro-3H,8H-2a,5,8a-triazaacenaphthylene-3,8-dione]
MIC [1]: ≤ 8 µg/mL
MIC90 ([2]; 28 isolates): 0.125 µg/mL (≈ 0.279 µM)
MIC90 ([2]; conclusion to Methods 1 and 2): 0.12 µg/mL (≈ 0.268 µM)
Gepotidacin MIC range ([3]; ceftriaxone R, 3 isolates): 1 to 2 µg/mL
Gepotidacin MIC range ([3]; clindamycin R, 1 isolate): 1 µg/mL
Gepotidacin MIC range ([3]; moxifloxacin R, 1 isolate): 1 µg/mL
Gepotidacin MIC range [4]: 0.5 µg/mL
Gepotidacin MIC range ([5]; ceftriaxone R, 43 isolates): 0.5 to 16 µg/mL
Gepotidacin MIC range ([5]; clindamycin R, 21 isolates): 0.5 to 8 µg/mL
Gepotidacin MIC range ([5]; moxifloxacin R, 6 isolates): 0.5 to 8 µg/mL
Gepotidacin MIC range [6]: 0.25 to 0.5 µg/mL
Gepotidacin MIC range ([7]; ceftriaxone R, 1 isolate): ≤0.015 µg/mL
Gepotidacin MIC range ([7]; clindamycin R, 1 isolate): 0.125 µg/mL
Gepotidacin MIC range ([7]; moxifloxacin R, 2 isolates): ≤0.015 to 0.03 µg/mL
Gepotidacin MIC range ([7]; pip/tazo R, 1 isolate): 0.03 µg/mL
Gepotidacin MIC range ([8]; clindamycin R, 4 isolates): 0.125 µg/mL
Gepotidacin MIC range ([8]; moxifloxacin R, 1 isolate): ≤0.015 µg/mL
Gepotidacin MIC range ([9]; ceftriaxone R, 7 isolates): ≤0.015 to 4 µg/mL
Gepotidacin MIC range ([9]; clindamycin R, 4 isolates): ≤0.015 to 2 µg/mL
Gepotidacin MIC range ([9]; moxifloxacin R, 3 isolates): 0.25 to 4 µg/mL
Gepotidacin MIC range [10]: 0.25 µg/mL
MIC ([11]; Bacteroides caccae, 1 drug-resistant isolate): 8 µg/mL (≈ 17.8 µM)
Gepotidacin MIC range ([11]; ceftriaxone R, 2 isolates): 0.05 to 8 µg/mL
Gepotidacin MIC range ([11]; clindamycin R, 1 isolate): 8 µg/mL
Gepotidacin MIC range ([11]; moxifloxacin R, 1 isolate): 0.5 µg/mL
Gepotidacin MIC range [12]: 0.06 to 1 µg/mL
Gepotidacin MIC range ([13]; clindamycin R, 1 isolate): 0.03 µg/mL
Gepotidacin MIC range ([13]; imipenem R, 9 isolates): 0.03 to 1 µg/mL
Gepotidacin MIC range ([14]; ceftriaxone R): 0.25 µg/mL
Gepotidacin MIC range ([14]; clindamycin R): 0.25 µg/mL
Gepotidacin MIC range ([15]; ceftriaxone R): 2 µg/mL
Gepotidacin MIC range ([15]; clindamycin R): 2 µg/mL
Gepotidacin MIC range ([15]; moxifloxacin R): 2 µg/mL
Gepotidacin MIC range [16]: 0.12 to 1 µg/mL
Gepotidacin MIC range [17]: ≤0.015 µg/mL
Gepotidacin MIC range [18]: 4 µg/mL
Gepotidacin MIC range ([19]; ceftriaxone R): 0.125 µg/mL
Gepotidacin MIC range ([19]; clindamycin R): 0.06 µg/mL
Gepotidacin MIC range ([19]; imipenem R): 0.125 µg/mL
Gepotidacin MIC range ([20]; ceftriaxone R, 8 isolates): 1 to 4 µg/mL
Gepotidacin MIC range ([20]; clindamycin R, 4 isolates): 1 to 4 µg/mL
Gepotidacin MIC range ([20]; moxifloxacin R, 2 isolates): 1 to 4 µg/mL
